Results from PubChem BioAssay (NCI).
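Step 1: Grow cells in 96-well plates. Step 2: Expose to compound for 48 hours at 5 concentrations. Step 3: Interpolate endpoints linearly; if unreached, use highest concentration. GI50 = concentration required for 50% inhibition of growth. At the TGI there is no net growth.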

What was measured:
Assay in all cases: DTP human tumour cell line panel, 48 h
HOP-92 NSCLC = tested on: HOP-92 NSCLC
HT29 colon = tested on: HT29 colon
SN12C renal = tested on: SN12C renal
PC-3 prostate = tested on: PC-3 prostate
HOP-62 NSCLC = tested on: HOP-62 NSCLC
EKVX NSCLC = tested on: EKVX NSCLC
SW-620 colon = tested on: SW-620 colon
UO-31 renal = tested on: UO-31 renal
HCT-116 colon = tested on: HCT-116 colon
TK-10 renal = tested on: TK-10 renal
ACHN renal = tested on: ACHN renal
COLO 205 colon = tested on: COLO 205 colon
MCF7 breast = tested on: MCF7 breast
T-47D breast = tested on: T-47D breast
HCT-15 colon = tested on: HCT-15 colon
DU-145 prostate = tested on: DU-145 prostate
SNB-19 CNS = tested on: SNB-19 CNS
OVCAR-5 ovarian = tested on: OVCAR-5 ovarian
SF-268 CNS = tested on: SF-268 CNS
KM12 colon = tested on: KM12 colon
M14 melanoma = tested on: M14 melanoma
SK-OV-3 ovarian = tested on: SK-OV-3 ovarian
CAKI-1 renal = tested on: CAKI-1 renal
NCI/ADR-RES ovarian = tested on: NCI/ADR-RES ovarian
MDA-MB-435 = tested on: MDA-MB-435
HCC-2998 colon = tested on: HCC-2998 colon
NCI-H23 lung = tested on: NCI-H23 lung
BT-549 breast = tested on: BT-549 breast

With `COc1cc2c(cc1OC)C(C(CCCCCC(CCC(C)C)C1NCCc3cc(OC)c(OC)cc31)CCC(C)C)NCC2` (stereo unspecified) the GI50 (HOP-92 NSCLC) was 808 nM, the TGI (HOP-92 NSCLC) was 2460 nM and the GI50 (HT29 colon) was 328 nM. For the same molecule, the TGI (HT29 colon) was 874 nM, the GI50 (SN12C renal) was 1440 nM and the TGI (SN12C renal) was 2870 nM. The GI50 (PC-3 prostate) was 1580 nM, the TGI (PC-3 prostate) was 3120 nM and the GI50 (HOP-62 NSCLC) was 1550 nM. For the same molecule, the TGI (HOP-62 NSCLC) was 3110 nM, the GI50 (EKVX NSCLC) was 1490 nM and the TGI (EKVX NSCLC) was 3200 nM. The GI50 (SW-620 colon) was 193 nM, the TGI (SW-620 colon) was 387 nM and the GI50 (UO-31 renal) was 1590 nM. For the same molecule, the TGI (UO-31 renal) was 3220 nM, the GI50 (HCT-116 colon) was 199 nM and the TGI (HCT-116 colon) was 388 nM. It also gave a GI50 (TK-10 renal) of 1760 nM, a TGI (TK-10 renal) of 3210 nM and a GI50 (ACHN renal) of 1680 nM. The TGI (ACHN renal) was 3170 nM, the GI50 (COLO 205 colon) was 225 nM and the TGI (COLO 205 colon) was 464 nM. For the same molecule, the GI50 (MCF7 breast) was 651 nM, the TGI (MCF7 breast) was 1910 nM and the GI50 (T-47D breast) was 1440 nM. The TGI (T-47D breast) was 3060 nM, the GI50 (HCT-15 colon) was 274 nM and the TGI (HCT-15 colon) was 851 nM. For the same molecule, the GI50 (DU-145 prostate) was 1190 nM, the TGI (DU-145 prostate) was 2550 nM and the GI50 (SNB-19 CNS) was 1450 nM. It also gave a TGI (SNB-19 CNS) of 2870 nM, a GI50 (OVCAR-5 ovarian) of 1690 nM and a TGI (OVCAR-5 ovarian) of 3170 nM. The GI50 (SF-268 CNS) was 1340 nM, the TGI (SF-268 CNS) was 2790 nM and the GI50 (KM12 colon) was 438 nM. For the same molecule, the TGI (KM12 colon) was 1260 nM, the GI50 (M14 melanoma) was 449 nM and the TGI (M14 melanoma) was 1510 nM. The GI50 (SK-OV-3 ovarian) was 1580 nM, the TGI (SK-OV-3 ovarian) was 2990 nM and the GI50 (CAKI-1 renal) was 1550 nM. For the same molecule, the TGI (CAKI-1 renal) was 3190 nM, the GI50 (NCI/ADR-RES ovarian) was 1440 nM and the TGI (NCI/ADR-RES ovarian) was 2940 nM. For the same molecule, the GI50 (MDA-MB-435) was 516 nM, the TGI (MDA-MB-435) was 2250 nM and the GI50 (HCC-2998 colon) was 188 nM. The TGI (HCC-2998 colon) was 357 nM, the GI50 (NCI-H23 lung) was 1660 nM and the TGI (NCI-H23 lung) was 3180 nM. For the same molecule, the GI50 (BT-549 breast) was 1720 nM and the TGI (BT-549 breast) was 3120 nM.
